Measurements published in patent US7138361B2, “Herbicidal heterocycles” (E. I. du Pont de Nemours and Company, priority 2000, dated 2006).

Columns and labels:
Type in all cases: in vivo
[1] = system: crabgrass (Digitaria sanguinalis); assay: Test B postemergence
In short: (§1)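 Greenhouse test: chemicals are formulated in a surfactant-containing non-phytotoxic solvent and applied either preemergence to planted seeds or postemergence to plants 2 to 18 cm tall. Response is rated visually versus controls after 13 to 15 days, 0 meaning no effect and 100 complete control.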

[2] = system: lambsquarters (Chenopodium album); assay: Test B postemergence
In short: as §1

[3] = system: Surinam grass (Brachiaria decumbens); assay: Test B postemergence
In short: as §1

[4] = system: morning glory (Ipomoea hederacea); assay: Test B postemergence
In short: as §1

[5] = system: pigweed (Amaranthus retroflexus); assay: Test B postemergence
In short: as §1

[6] = system: giant foxtail (Setaria faberii); assay: Test B postemergence
In short: as §1

[7] = system: barnyardgrass (Echinochloa crus-galli); assay: Test B postemergence
In short: as §1

[8] = system: cocklebur (Xanthium strumarium); assay: Test B postemergence
In short: as §1

[9] = system: Sunflower; assay: Test C preemergence; settings: scale 0 to 100, 0 no effect, 100 complete control
[10] = system: corn (Zea mays); assay: Test B preemergence
In short: as §1

[11] = system: crabgrass (Digitaria sanguinalis); assay: Test B preemergence
In short: as §1

[12] = system: velvetleaf (Abutilon theophrasti); assay: Test B preemergence
In short: as §1

[13] = system: lambsquarters (Chenopodium album); assay: Test B preemergence
In short: as §1

[14] = system: Surinam grass (Brachiaria decumbens); assay: Test B preemergence
In short: as §1

[15] = system: morning glory (Ipomoea hederacea); assay: Test B preemergence
In short: as §1

[16] = system: rice (Oryza saliva); assay: Test B preemergence
In short: as §1

[17] = system: pigweed (Amaranthus retroflexus); assay: Test B preemergence
In short: as §1

[18] = system: giant foxtail (Setaria faberii); assay: Test B preemergence
In short: as §1

[19] = system: barnyardgrass (Echinochloa crus-galli); assay: Test B preemergence
In short: as §1

[20] = system: cocklebur (Xanthium strumarium); assay: Test B preemergence
In short: as §1

[21] = system: duck salad (Heteranthera limosa); assay: Test C flooded paddy test; settings: for Ducksalad plant response rating: Flooded Paddy, scale 0 to 100, 0 no effect, 100 complete control; for Plant response rating, Ducksalad: scale 0 to 100 (0 no effect, 100 complete control)
In short: (§2)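 Greenhouse-maintained for 12 to 14 days after treatment, the paddy plants (2-leaf stage at application) were scored visually against controls. A score of 0 denotes no effect and a score of 100 denotes complete control.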

[22] = system: rice (Oryza saliva); assay: Test C flooded paddy test; settings: for Rice plant response rating: Flooded Paddy, scale 0 to 100, 0 no effect, 100 complete control; for Plant response rating, Rice: scale 0 to 100 (0 no effect, 100 complete control)
In short: as §2

[23] = system: smallflower flatsedge (Cyperus difformis); assay: Test C flooded paddy test; settings: for Flatsedge plant response rating: Flooded Paddy, scale 0 to 100, 0 no effect, 100 complete control; for Plant response rating, Flatsedge: scale 0 to 100 (0 no effect, 100 complete control)
In short: as §2

[24] = system: barnyardgrass (Echinochloa crus-galli); assay: Test C flooded paddy test; settings: for Barnyardgrass plant response rating: Flooded Paddy, scale 0 to 100, 0 no effect, 100 complete control; for Plant response rating, Barnyardgrass: scale 0 to 100 (0 no effect, 100 complete control)
In short: as §2

[25] = system: Nightshade; assay: Test C preemergence; settings: Rate 250 g/ha, visual evaluation after 12 to 14 days
[26] = system: Sunflower; assay: Test C preemergence; settings: scale 0 to 100
[27] = Rate 125 g/ha, scale 0 (no effect) to 100 (complete control), 13 to 15 days
[28] = Rate 500 g/ha, scale 0 to 100, 0 is no effect, 100 is complete control, 13 to 15 days
[29] = Preemergence, Rate 500 g/ha, scale 0 to 100, 0 no effect, 100 complete control
[30] = preemergence, Rate 125 g/ha, scale 0 to 100, 0 no effect, 100 complete control
[31] = flooded paddy test, Rate 62 g/ha
[32] = flooded paddy test, Rate 125 g/ha
[33] = Rate 125 g/ha, scale 0 to 100, 0 no effect, 100 complete control
[34] = Rate 500 g/ha, scale 0 (no effect) to 100 (complete control), 13 to 15 days
[35] = preemergence, Rate 125 g/ha, scale of 0 to 100 where 0 is no effect and 100 is complete control, 13 to 15 days
[36] = flooded paddy test, Rate 250 g/ha
[37] = flooded paddy test, Rate 62 g/ha, visually evaluated after 12 to 14 days, 0 = no effect, 100 = complete control

CC(C)(C)c1ccn(C2CCN(c3cccc(C(F)(F)F)c3)C2=S)n1 (stereo not shown) [Compound 22] was tested, and the “Plant response rating, Crabgrass” value [1, 27] was 40, the “Plant response rating, Crabgrass” value [1, 28] was 40 and the “Plant response rating, Lambsquarters” value [2, 27] was 90. For the same compound, the “Plant response rating, Lambsquarters” value [2, 28] was 90, the “Plant response rating, Surinam grass” value [3, 28] was 20 and the “Plant response rating, Morningglory” value [4, 27] was 30. The “Plant response rating, Morningglory” value [4, 28] was 30, the “Plant response rating, Pigweed” value [5, 27] was 80 and the “Plant response rating, Pigweed” value [5, 28] was 90. The “Plant response rating, Foxtail, Giant” value [6, 27] was 0, the “Plant response rating, Foxtail, Giant” value [6, 28] was 0 and the “Plant response rating, Barnyardgrass” value [7, 27] was 0. The “Plant response rating, Barnyardgrass” value [7, 28] was 80, the “Plant response rating, Cocklebur” value [8, 27] was 20 and the “Plant response rating, Cocklebur” value [8, 28] was 20. The “Plant response rating, Sunflower” value ([9]; Rate 125 g/ha) was 0, the “Plant response rating, Corn” value [10, 29] was 0 and the “Plant response rating, Corn” value [10, 30] was 0. The “Plant response rating, Crabgrass” value [11, 29] was 100, the “Plant response rating, Crabgrass” value [11, 30] was 0 and the “Plant response rating, Velvetleaf” value [12, 29] was 0. The “Plant response rating, Velvetleaf” value [12, 30] was 0, the “Plant response rating, Lambsquarters” value [13, 29] was 100 and the “Plant response rating, Lambsquarters” value [13, 30] was 100. The “Plant response rating, Surinam grass” value [14, 29] was 50, the “Plant response rating, Surinam grass” value [14, 30] was 30 and the “Plant response rating, Morningglory” value [15, 29] was 0. For the same compound, the “Plant response rating, Morningglory” value [15, 30] was 0, the “Plant response rating, Rice” value [16, 29] was 0 and the “Plant response rating, Rice” value [16, 30] was 0. The “Plant response rating, Pigweed” value [17, 29] was 100, the “Plant response rating, Pigweed” value [17, 30] was 90 and the “Plant response rating, Foxtail, Giant” value [18, 29] was 100. The “Plant response rating, Foxtail, Giant” value [18, 30] was 30, the “Plant response rating, Barnyardgrass” value [19, 29] was 80 and the “Plant response rating, Barnyardgrass” value [19, 30] was 0. For the same compound, the “Plant response rating, Cocklebur” value [20, 29] was 0, the “Plant response rating, Cocklebur” value [20, 30] was 0 and the “Ducksalad plant response rating” value ([21]; Rate 250 g/ha) was 80. For the same compound, the “Ducksalad plant response rating” value ([21]; Rate 500 g/ha) was 100, the “Plant response rating, Ducksalad” value [21, 31] was 50 and the “Plant response rating, Ducksalad” value [21, 32] was 80. The “Rice plant response rating” value ([22]; Rate 250 g/ha) was 20, the “Rice plant response rating” value ([22]; Rate 500 g/ha) was 40 and the “Plant response rating, Rice” value [22, 31] was 20. For the same compound, the “Plant response rating, Rice” value [22, 32] was 20, the “Flatsedge plant response rating” value ([23]; Rate 250 g/ha) was 100 and the “Flatsedge plant response rating” value ([23]; Rate 500 g/ha) was 100. The “Plant response rating, Flatsedge” value [23, 31] was 100, the “Plant response rating, Flatsedge” value [23, 32] was 100 and the “Barnyardgrass plant response rating” value ([24]; Rate 250 g/ha) was 100. The “Barnyardgrass plant response rating” value ([24]; Rate 500 g/ha) was 100, the “Plant response rating, Barnyardgrass” value [24, 31] was 40 and the “Plant response rating, Barnyardgrass” value [24, 32] was 80. The “Plant response rating (0 to 100), Nightshade” value [25] was 40.
For Cc1cc(C)nc(N2CCC(n3ccc(C(C)(C)C)n3)C2=O)c1 (stereo not shown) [Compound 138], the “Plant response rating, Sunflower” value ([26]; Rate 31 g/ha) was 0, the “Plant response rating, Sunflower” value ([26]; Rate 62 g/ha) was 0 and the “Plant response rating, Crabgrass” value [1, 33] was 0. For the same compound, the “Plant response rating, Crabgrass” value [1, 34] was 0, the “Plant response rating, Lambsquarters” value [2, 33] was 0 and the “Plant response rating, Lambsquarters” value [2, 34] was 0. For the same compound, the “Plant response rating, Surinam grass” value [3, 33] was 0, the “Plant response rating, Surinam grass” value [3, 34] was 0 and the “Plant response rating, Morningglory” value [4, 33] was 10. For the same compound, the “Plant response rating, Morningglory” value [4, 34] was 30, the “Plant response rating, Pigweed” value [5, 33] was 0 and the “Plant response rating, Pigweed” value [5, 34] was 30. The “Plant response rating, Foxtail, Giant” value [6, 33] was 0, the “Plant response rating, Foxtail, Giant” value [6, 34] was 0 and the “Plant response rating, Barnyardgrass” value [7, 33] was 0. For the same compound, the “Plant response rating, Barnyardgrass” value [7, 34] was 0, the “Plant response rating, Cocklebur” value [8, 33] was 0 and the “Plant response rating, Cocklebur” value [8, 34] was 0. For the same compound, the “Plant response rating, Sunflower” value ([9]; Rate 250 g/ha) was 50, the “Plant response rating, Corn” value [10, 29] was 20 and the “Plant response rating, Corn” value [10, 35] was 0. The “Plant response rating, Crabgrass” value [11, 29] was 100, the “Plant response rating, Crabgrass” value [11, 35] was 100 and the “Plant response rating, Velvetleaf” value [12, 29] was 0. The “Plant response rating, Velvetleaf” value [12, 35] was 0, the “Plant response rating, Lambsquarters” value [13, 29] was 100 and the “Plant response rating, Lambsquarters” value [13, 35] was 100. The “Plant response rating, Surinam grass” value [14, 29] was 100, the “Plant response rating, Surinam grass” value [14, 35] was 70 and the “Plant response rating, Morningglory” value [15, 29] was 100. The “Plant response rating, Morningglory” value [15, 35] was 90, the “Plant response rating, Rice” value [16, 29] was 100 and the “Plant response rating, Rice” value [16, 35] was 0. For the same compound, the “Plant response rating, Pigweed” value [17, 29] was 100, the “Plant response rating, Pigweed” value [17, 35] was 100 and the “Plant response rating, Foxtail, Giant” value [18, 29] was 100. For the same compound, the “Plant response rating, Foxtail, Giant” value [18, 35] was 80, the “Plant response rating, Barnyardgrass” value [19, 29] was 100 and the “Plant response rating, Barnyardgrass” value [19, 35] was 0. The “Plant response rating, Cocklebur” value [20, 29] was 100, the “Plant response rating, Cocklebur” value [20, 35] was 0 and the “Ducksalad plant response rating” value ([21]; Rate 500 g/ha) was 100. The “Plant response rating, Ducksalad” value [21, 32] was 20, the “Plant response rating, Ducksalad” value [21, 36] was 60 and the “Plant response rating (scale 0 to 100), Ducksalad” value [21, 37] was 0. For the same compound, the “Rice plant response rating” value ([22]; Rate 500 g/ha) was 70, the “Plant response rating, Rice” value [22, 32] was 0 and the “Plant response rating, Rice” value [22, 36] was 30. The “Plant response rating (scale 0 to 100), Rice” value [22, 37] was 0, the “Flatsedge plant response rating” value ([23]; Rate 500 g/ha) was 100 and the “Plant response rating, Flatsedge” value [23, 32] was 90. The “Plant response rating, Flatsedge” value [23, 36] was 100, the “Plant response rating (scale 0 to 100), Flatsedge” value [23, 37] was 90 and the “Barnyardgrass plant response rating” value ([24]; Rate 500 g/ha) was 100. The “Plant response rating, Barnyardgrass” value [24, 32] was 40, the “Plant response rating, Barnyardgrass” value [24, 36] was 100 and the “Plant response rating (scale 0 to 100), Barnyardgrass” value [24, 37] was 0.
